Data on 14 compounds can be found in publication PMC9851200, “Multiparameter phenotypic screening for endogenous TFEB and TFE3 translocation identifies novel chemical series modulating lysosome function” (Autophagy, 2022).

The structures appear in SMILES notation. Read-outs that look alike come from different tables or passages of the source.

In series [1] the test system is SH-SY5Y cells.
From the text: The PKIS2 Library was supplied by The Structural Genomics Consortium at the University of North Carolina at Chapel Hill.
Series [2] has as its system SH-SY5Y cells. Nature of the series: AK (adenylate kinase) release ToxiLight cytotoxicity assay. Further: reference of the scale not given here.
The subject of the next series is endogenous TFE3. Put plainly: TFE3 nuclear translocation, immunocytochemistry high-content imaging. Format: cell-based.
The subject of another series is endogenous TFEB. Put plainly: TFEB nuclear translocation, immunocytochemistry high-content imaging. Format: cell-based.
Series [3] relates to SH-SY5Y cells. Put plainly: Nuclear count from microscopy images (cellular growth and toxicity). Further: reference of the scale not given here.
Where [4] appears, read: PKIS2 primary screening, DQ Red BSA intensity.
The mark [5] stands for this setting: PKIS2 primary screening, DQ Red BSA spot count.
Wherever DQ Intensity is given: reference of the scale not given here.
Wherever DQ Spot is given: reference of the scale not given here.

In the case of `O=C(Nc1c(F)cccc1F)c1cc(C(=O)c2ccccc2F)c[nH]1` [UNC10225351A], in the series with SH-SY5Y cells [1] (PKIS2 primary screen, DQ Red BSA intensity), the “DQ Intensity” value amounted to 115.15. The “DQ Spot” value in the series on SH-SY5Y cells [1] (PKIS2 primary screen, DQ Red BSA spot count) was 113.72. For the same compound, the AK in the series on SH-SY5Y cells [2] (PKIS2 primary screen) worked out at 106.59. Further, the TFE3 % in the series on endogenous TFE3 (PKIS2 primary screen) amounted to 7.96%. In the series with endogenous TFEB (PKIS2 primary screen), this compound had a TFEB % of 3.75%. Further, in the series with SH-SY5Y cells [3] (PKIS2 primary screen), the “Nuclear Count” value was determined as 134.69.

As to `CN1CCN(CCCNc2nccc(-c3c(-c4ccc(F)cc4)nn4cc(C(N)=O)ccc34)n2)CC1` [UNC10225188A], in the series on SH-SY5Y cells [1] (PKIS2 primary screening), the “DQ Intensity” value was 87.92 and the “DQ Spot” value came to 111.81. Further, the AK in the series on SH-SY5Y cells [2] (PKIS2 primary screening) came out at 105.02. Moreover, the TFE3 % with endogenous TFE3 (PKIS2 primary screening) is 19.47%. Further, the TFEB % in the series with endogenous TFEB (PKIS2 primary screening) turned out to be 6.08%. In the series with SH-SY5Y cells [3] (PKIS2 primary screening), the “Nuclear Count” value is given as 94.19.

On to `COC(=O)Nc1nc2ccc(Oc3ccc(NC(=O)Nc4cccc(SC)c4)cc3)cc2[nH]1` [GW697999], for which the “DQ Intensity” value in the series on SH-SY5Y cells [1] (setting [4]) was 145.78. In addition, in the series on SH-SY5Y cells [1] (setting [5]), the “DQ Spot” value came to 122.82. Moreover, the AK in the series with SH-SY5Y cells [2] (PKIS2 primary screening) is given as 75.30. This compound also displayed a TFE3 % with endogenous TFE3 (PKIS2 primary screening) of 19.88%. In addition, in the series with endogenous TFEB (PKIS2 primary screening), the TFEB % was 5.11%. In the series on SH-SY5Y cells [3] (PKIS2 primary screening), the “Nuclear Count” value was 71.32.

Turning to `O=C(Nc1ccc2c(c1)OCO2)NC1CCN(c2ccnc(NCc3ccc(F)cc3)n2)CC1` [GSK1379859], the “DQ Intensity” value with SH-SY5Y cells [1] (setting [4]) came to 77.50. Besides, in the series with SH-SY5Y cells [1] (setting [5]), the “DQ Spot” value came out at 79.61. Further, the AK with SH-SY5Y cells [2] (PKIS2 primary screening) stood at 102.69. In the series on endogenous TFE3 (PKIS2 primary screening), this compound registered a TFE3 % of 12.41%. Further, in the series on endogenous TFEB (PKIS2 primary screening), the TFEB % is recorded as 6.05%. Besides, the “Nuclear Count” value in the series with SH-SY5Y cells [3] (PKIS2 primary screening) is 98.68.

Consider `Cc1cc(-c2ccc3c(c2)CC[C@@H](N[C@@H](C)c2ccccc2)C3)cnc1N` [GW412617], for which, in the series on SH-SY5Y cells [1] (setting [4]), the “DQ Intensity” value was determined as 86.08. In addition, the “DQ Spot” value in the series with SH-SY5Y cells [1] (setting [5]) is 45.16. Also, in the series on SH-SY5Y cells [2] (PKIS2 primary screening), the AK is on record as 35.11. In the series on endogenous TFE3 (PKIS2 primary screening), this compound gave a TFE3 % of 41.99%. In the series on endogenous TFEB (PKIS2 primary screening), this compound registered a TFEB % of 15.77%. In the series on SH-SY5Y cells [3] (PKIS2 primary screening), the “Nuclear Count” value was determined as 101.83.

Take `Cl.Oc1ccc(-c2nc(-c3ccccc3)[nH]c2-c2ccncc2)cc1` [UNC10225482A]: the “DQ Intensity” value in the series with SH-SY5Y cells [1] (setting [4]) turned out to be 99.60. For the same compound, the “DQ Spot” value with SH-SY5Y cells [1] (setting [5]) stood at 108.10. This compound gave an AK with SH-SY5Y cells [2] (PKIS2 primary screening) of 90.33. Moreover, the TFE3 % in the series with endogenous TFE3 (PKIS2 primary screening) is recorded as 9.08%. Also, the TFEB % in the series with endogenous TFEB (PKIS2 primary screening) was 7.63%. Moreover, the “Nuclear Count” value with SH-SY5Y cells [3] (PKIS2 primary screening) came to 92.35.

Regarding `Cc1n[nH]c2cc(Nc3ccnc(Nc4cccc(CN5CCOCC5)c4)n3)ccc12` [GW682569], the “DQ Intensity” value with SH-SY5Y cells [1] (setting [4]) stood at 93.91. In the series on SH-SY5Y cells [1] (setting [5]), the “DQ Spot” value was determined as 112.57. This compound had an AK with SH-SY5Y cells [2] (PKIS2 primary screening) of 83.50. Moreover, in the series on endogenous TFE3 (PKIS2 primary screening), the TFE3 % came to 9.15%. Moreover, the TFEB % in the series on endogenous TFEB (PKIS2 primary screening) came to 6.60%. In the series on SH-SY5Y cells [3] (PKIS2 primary screening), the “Nuclear Count” value was determined as 85.02.

With `COc1cc2ncn(-c3cc(OCc4sccc4Cl)c(C(N)=O)s3)c2cc1OC` [UNC10225153A], in the series with SH-SY5Y cells [1] (PKIS2 primary screening), the “DQ Intensity” value is 186.81 and the “DQ Spot” value was 134.42. For the same compound, the AK with SH-SY5Y cells [2] (PKIS2 primary screening) is given as 134.16. In addition, the TFE3 % with endogenous TFE3 (PKIS2 primary screening) was determined as 30.18%. The TFEB % in the series with endogenous TFEB (PKIS2 primary screening) was found to be 9.72%. The “Nuclear Count” value in the series with SH-SY5Y cells [3] (PKIS2 primary screening) is listed as 49.58.

As for `COc1ccc(-c2nc3n(c2-c2ccncc2)CCC3)cc1` [UNC10225334B], in the series with SH-SY5Y cells [1] (setting [4]), the “DQ Intensity” value is 91.69. The “DQ Spot” value in the series on SH-SY5Y cells [1] (setting [5]) came to 94.15. For the same compound, the AK with SH-SY5Y cells [2] (PKIS2 primary screening) was determined as 75.67. In the series with endogenous TFE3 (PKIS2 primary screening), the TFE3 % is given as 11.14%. Moreover, in the series with endogenous TFEB (PKIS2 primary screening), the TFEB % is 9.58%. Also, in the series with SH-SY5Y cells [3] (PKIS2 primary screening), the “Nuclear Count” value turned out to be 89.36.

For `COc1ccc(C)c(Nc2ccnc(Nc3ccc(-c4cnc[nH]4)cc3)n2)c1` [GW784041], in the series on SH-SY5Y cells [1] (setting [4]), the “DQ Intensity” value stood at 109.83. The “DQ Spot” value in the series with SH-SY5Y cells [1] (setting [5]) was 101.33. In the series with SH-SY5Y cells [2] (PKIS2 primary screening), this compound showed an AK of 81.91. The same compound returned a TFE3 % in the series on endogenous TFE3 (PKIS2 primary screening) of 11.03%. This compound returned a TFEB % with endogenous TFEB (PKIS2 primary screening) of 16.17%. In addition, the “Nuclear Count” value in the series on SH-SY5Y cells [3] (PKIS2 primary screening) is 105.20.

In the case of `COc1ccc(Nc2nccc(N3CCC(NS(=O)(=O)c4ccc(NC(C)=O)cc4)C3)n2)cc1` (stereo not drawn) [GSK1379729], in the series on SH-SY5Y cells [1] (setting [4]), the “DQ Intensity” value is reported as 76.81. Besides, the “DQ Spot” value with SH-SY5Y cells [1] (setting [5]) stood at 100.23. Also, the AK with SH-SY5Y cells [2] (PKIS2 primary screening) is given as 69.35. Besides, in the series with endogenous TFE3 (PKIS2 primary screening), the TFE3 % came out at 16.51%. In addition, in the series on endogenous TFEB (PKIS2 primary screening), the TFEB % was determined as 5.22%. Besides, in the series with SH-SY5Y cells [3] (PKIS2 primary screening), the “Nuclear Count” value stood at 90.61.

As for `CN1C(=O)C(Nc2cc(Cl)c(O)c(Cl)c2)=C(c2ccc(Cl)cc2)C1=O` [UNC10225212A], the “DQ Intensity” value in the series with SH-SY5Y cells [1] (setting [4]) is reported as 96.22. Besides, in the series with SH-SY5Y cells [1] (setting [5]), the “DQ Spot” value is 97.02. For the same compound, in the series with SH-SY5Y cells [2] (PKIS2 primary screening), the AK was 103.32. In the series on endogenous TFE3 (PKIS2 primary screening), this compound displayed a TFE3 % of 7.81%. Further, the TFEB % with endogenous TFEB (PKIS2 primary screening) is on record as 3.71%. For the same compound, in the series with SH-SY5Y cells [3] (PKIS2 primary screening), the “Nuclear Count” value is on record as 107.72.

`Cc1ccccc1-c1cc(-c2c[nH]nc2-c2ccccn2)ccn1` [UNC10225243A]: the “DQ Intensity” value with SH-SY5Y cells [1] (setting [4]) is recorded as 62.92. In addition, in the series with SH-SY5Y cells [1] (setting [5]), the “DQ Spot” value turned out to be 82.05. Moreover, the AK in the series with SH-SY5Y cells [2] (PKIS2 primary screening) turned out to be 94.72. In the series with endogenous TFE3 (PKIS2 primary screening), the TFE3 % came to 14.74%. The compound also showed a TFEB % with endogenous TFEB (PKIS2 primary screening) of 4.36%. Besides, the “Nuclear Count” value with SH-SY5Y cells [3] (PKIS2 primary screening) stood at 90.96.

With `C[C@@H](Oc1cc(-n2cnc3ccc(NC(=O)NC(C)(C)C)cc32)sc1C(N)=O)c1ccccc1Cl` [UNC10225287A], in the series with SH-SY5Y cells [1] (PKIS2 primary screening), the “DQ Intensity” value came to 115.96 and the “DQ Spot” value was determined as 109.60. Also, the AK with SH-SY5Y cells [2] (PKIS2 primary screening) is 76.21. This compound came in with a TFE3 % in the series on endogenous TFE3 (PKIS2 primary screening) of 9.35%. The compound also gave a TFEB % with endogenous TFEB (PKIS2 primary screening) of 3.50%. Further, the “Nuclear Count” value in the series on SH-SY5Y cells [3] (PKIS2 primary screening) is reported as 136.32.
